PubChem BioAssay (NCI)
“And” between values parts separate entries of the source, which are not always exact repeats. Identical values can stand only once.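 Tested at 5 concentrations; 48 h exposure; 96-well plates; endpoints linearly interpolated, else capped at highest concentration. GI50 is the concentration that inhibits growth by half. The concentration for full growth arrest is given as TGI.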

Experiments:
Assay in all cases: inhibition of tumour cell growth, NCI panel, 48 h
SN12C renal = test system: SN12C renal
PC-3 prostate = test system: PC-3 prostate
A498 renal = test system: A498 renal
U251 CNS = test system: U251 CNS
A549 NSCLC = test system: A549 NSCLC
HL-60(TB) leukemia = test system: HL-60(TB) leukemia
K-562 leukemia = test system: K-562 leukemia
RXF 393 renal = test system: RXF 393 renal
SK-OV-3 ovarian = test system: SK-OV-3 ovarian
M14 melanoma = test system: M14 melanoma

| SMILES | GI50 (SN12C renal) | TGI (SN12C renal) | GI50 (PC-3 prostate) [µM] | TGI (PC-3 prostate) | GI50 (A498 renal) | TGI (A498 renal) | GI50 (U251 CNS) | TGI (U251 CNS) | GI50 (A549 NSCLC) [µM] | TGI (A549 NSCLC) [µM] | GI50 (HL-60(TB) leukemia) [µM] | TGI (HL-60(TB) leukemia) | GI50 (K-562 leukemia) [µM] | TGI (K-562 leukemia) [µM] | GI50 (RXF 393 renal) | TGI (RXF 393 renal) | GI50 (SK-OV-3 ovarian) | TGI (SK-OV-3 ovarian) [µM] | GI50 (M14 melanoma) | TGI (M14 melanoma) |
| --- | --- | --- | --- | --- | --- | --- | --- | --- | --- | --- | --- | --- | --- | --- | --- | --- | --- | --- | --- | --- |
| CC[C@H](C)[C@H](NC(=O)CN(C)C)C(=O)N(C)[C@H](C[C@@H](OC(C)=O)c1nc(C(=O)NC23C4C5C2C2C3C4C52C(=O)OC)cs1)C(C)C (stereo partly specified) | 0.276 µM | > 18.8 µM | 0.768 | > 33.2 µM | 0.993 µM | 21.5 µM | 0.8 µM | > 33.2 µM | 2.12 | > 33.2 | 0.0777 | 0.242 µM | 0.138 | > 33.2 | 0.387 µM | > 33.2 µM | 4.15 µM | > 33.2 | 0.172 µM | > 33.2 µM |
| C=C(CN1CCN(c2cc(C(F)(F)F)cc(C(F)(F)F)c2)CC1)c1ccc(C(=O)Nc2ccccc2N)cc1 | 2.47 µM | 13.4 µM | 2.92 | 31 µM | 2.04 µM | 14.4 µM | 10.1 µM | > 100 µM | 19 | > 100 | 1.05 | > 100 µM | 1.69 | > 100 | 2.02 µM | 7.71 µM | 25.7 µM | > 100 | 3.76 µM | > 100 µM |
| COC(=O)c1sc(-n2cnc3cc(OC)c(OC)cc32)cc1OCc1ccccc1C(F)(F)F | > 25 µM | > 25 µM | > 25 | > 25 µM | 0.513 µM | > 25 µM | 10.8 µM | > 25 µM | > 25 | > 25 | > 25 | > 25 µM | > 25 | > 25 | 7.45 µM | > 25 µM | > 21.5 µM | > 25 | > 25 µM | > 25 µM |
| NS(=O)(=O)c1cccc(Nc2cc(-c3ccc(F)cc3)[nH]n2)c1 | > 20.7 µM | > 25 µM | > 23.6 | > 25 µM | 18.4 µM | > 25 µM | 16.5 µM | > 25 µM | > 24.1 | > 25 | > 25 | > 25 µM | > 25 | > 25 | 17.8 µM | > 25 µM | 13.2 µM | > 25 | > 25 µM | > 25 µM |
| CC(C)(C)n1cc(-c2ccnc(NCCCNS(=O)(=O)c3cccc4ccccc34)c2)c(-c2cccc(O)c2)n1 | 1.73 µM | 3.33 µM | 1.85 | 5.57 µM | 1.37 µM | 5.1 µM | 1.73 µM | 3.87 µM | 2.29 | 5.99 | 2.68 | 7.26 µM | 1.48 | > 100 | 1.52 µM | 3.06 µM | 2.63 µM | 7.23 | 1.68 µM | 3.21 µM |
| COc1cc(C(=O)/C=C/c2c[nH]c3ccccc23)cc(OC)c1OC | 0.0631 µM | 18.9 µM | < 0.0212 | 27.9 µM | < 0.0119 µM | 0.0414 µM | < 0.0195 µM | 16.1 µM | 0.0339 | 24.2 | < 0.0145 | 0.0422 µM | < 0.01 | 12.5 | 0.0238 µM | 34.7 µM | 0.0438 µM | 31.1 | < 0.0155 µM | 39.4 µM |
| COc1cc(F)c(F)c(Nc2ccc(I)cc2F)c1NS(=O)(=O)C1(CC(O)CO)CC1 (stereo unspecified) | 12.5 µM | 38.6 µM | 15.1 | > 57.5 µM | 10.1 µM | 28.1 µM | 15.2 µM | 39.9 µM | 15.4 | > 64.9 | 7.19 | 57.7 µM | 15.7 | > 81.7 | 5.78 µM | 19.7 µM | 25.8 µM | > 79.6 | 3.04 µM | 15.5 µM |
| O=C(NCCN1CCOCC1)c1cc2c(Oc3ccc(NC(=O)C4(C(=O)Nc5ccc(F)cc5)CC4)cc3)ccnc2[nH]1 | 1.44 µM | > 100 µM | 5.77 | 64.6 µM | 0.833 µM | 11.8 µM | 7.87 µM | 34.5 µM | 4.9 | 48.6 | 15.2 | 47 µM | 4.27 | 42.2 | 1.84 µM | 19.8 µM | 15.1 µM | > 100 | 4.14 µM | > 52.8 µM |
| C=C1C(=O)C23C(O)CC4C(C)(C)CCC(O)C4(C)C2CC(OC(C)=O)C1[C@H]3O (stereo partly specified) | – | 12 µM | – | 23.7 µM | – | 30.9 µM | – | 22.8 µM | – | 13.7 | – | 3.53 µM | – | 10.1 | – | 5.26 µM | – | 41.4 | – | 12.1 µM |
| COc1cccc(/C=C\C(=O)c2ccccc2)c1 | 8.97 µM | 25.5 µM | 3.73 | 26.2 µM | 11.4 µM | 26.2 µM | 2.77 µM | 14.1 µM | 15 | 40.5 | 5.98 | > 100 µM | 6.27 | > 100 | 2.46 µM | 5.34 µM | 15.9 µM | 32.2 | 11.7 µM | 28.8 µM |
| CCc1ccc([OH2+])c(C(=O)[O-])c1.CCc1ccc([OH2+])c(C(=O)[O-])c1.CCc1ccc([OH2+])c(C(=O)[O-])c1.CCc1ccc([OH2+])c(C(=O)[O-])c1.[Cu+2].[Cu+2] | 98.3 µM | > 100 µM | > 70.5 | > 100 µM | 21.2 µM | 40.5 µM | > 59.9 µM | > 100 µM | 38.6 | > 100 | 2.4 | > 44.4 µM | 38.1 | > 73.9 | > 46.8 µM | > 94.5 µM | 23.9 µM | > 68.2 | > 100 µM | > 100 µM |
| CC1(C)C2CC(=O)C1(C)C(OCc1ccccc1)C2Br (stereo unspecified) | 24.2 µM and 82.1 µM | 52.9 µM and > 100 µM | – | 47.8 µM and > 100 µM | 24.8 µM and > 100 µM | 62.2 µM and > 100 µM | 22.4 µM and 51.7 µM | 44.6 µM and > 100 µM | – | > 100 | – | 50.2 µM and 62.1 µM | – | > 100 | 20.6 µM and 82.7 µM | 46.8 µM and > 100 µM | 41.5 µM and > 100 µM | > 100 | 23.4 µM and 54.8 µM | 57.9 µM and > 100 µM |
